According to the supplement of paper PMC10307832:

What was measured:
Test in all cases: relative viability (nuclei count vs DMSO), 5 days (fraction); higher = more cells survive
[1] = tested on: A-427
Summary of the method: (§1)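 After 5 days of treatment, lung cancer cells in 1536-well plates were fixed and stained in a single step (final 0.05% Triton X-100, 1% formaldehyde, 1 ug/ml Hoechst) and their nuclei counted on 4× images. Treatment had been applied by pin tool the day after seeding as one drug alone or as a fixed anchor-drug dose with five library-drug doses (not always all listed) in √10 steps. Relative viability is the nuclei count of treated wells divided by that of vehicle wells, and values are medians of duplicate plates.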

[2] = tested on: EMC-BAC-2
Summary of the method: as §1

[3] = tested on: HARA
Summary of the method: as §1

[4] = tested on: HOP-62
Summary of the method: as §1

[5] = tested on: LK-2
Summary of the method: as §1

[6] = tested on: LXF-289
Summary of the method: as §1

[7] = tested on: NCI-H1792
Summary of the method: as §1

[8] = tested on: NCI-H1944
Summary of the method: as §1

[9] = tested on: NCI-H1993
Summary of the method: as §1

[10] = tested on: NCI-H2009
Summary of the method: as §1

[11] = tested on: NCI-H2170
Summary of the method: as §1

SMILES: Cc1sc2c(c1C)C(c1ccc(Cl)cc1)=N[C@@H](CC(=O)OC(C)(C)C)c1nnc(C)n1-2 [JQ1] + CC(=O)Nc1cccc(-n2c(=O)n(C3CC3)c(=O)c3c(Nc4ccc(I)cc4F)n(C)c(=O)c(C)c32)c1 [Trametinib] (partner 0.02 µM)
- relative viability ([1]; first compound 0.04 µM): 0.759
- relative viability ([1]; first compound 0.1265 µM): 0.843
- relative viability ([1]; first compound 0.4 µM): 0.674
- relative viability ([1]; first compound 1.265 µM): 0.466
- relative viability ([1]; first compound 4 µM): 0.52
- relative viability ([2]; first compound 0.04 µM): 0.935
- relative viability ([2]; first compound 0.4 µM): 0.881
- relative viability ([2]; first compound 1.265 µM): 0.586
- relative viability ([2]; first compound 4 µM): 0.366
- relative viability ([3]; first compound 0.04 µM): 0.72
- relative viability ([3]; first compound 0.1265 µM): 0.411
- relative viability ([3]; first compound 0.4 µM): 0.174
- relative viability ([3]; first compound 1.265 µM): 0.184
- relative viability ([3]; first compound 4 µM): 0.304
- relative viability ([4]; first compound 0.04 µM): 0.307
- relative viability ([4]; first compound 0.1265 µM): 0.262
- relative viability ([4]; first compound 0.4 µM): 0.156
- relative viability ([4]; first compound 1.265 µM): 0.119
- relative viability ([4]; first compound 4 µM): 0.106
- relative viability ([5]; first compound 0.04 µM): 0.71
- relative viability ([5]; first compound 0.1265 µM): 0.579
- relative viability ([5]; first compound 0.4 µM): 0.217
- relative viability ([5]; first compound 1.265 µM): 0.163
- relative viability ([5]; first compound 4 µM): 0.218
- relative viability ([6]; first compound 0.04 µM): 0.641
- relative viability ([6]; first compound 0.1265 µM): 0.698
- relative viability ([6]; first compound 0.4 µM): 0.676
- relative viability ([6]; first compound 1.265 µM): 0.607
- relative viability ([6]; first compound 4 µM): 0.477
- relative viability ([7]; first compound 0.04 µM): 0.345
- relative viability ([7]; first compound 0.1265 µM): 0.421
- relative viability ([7]; first compound 0.4 µM): 0.286
- relative viability ([7]; first compound 1.265 µM): 0.191
- relative viability ([7]; first compound 4 µM): 0.186
- relative viability ([8]; first compound 0.04 µM): 0.409
- relative viability ([8]; first compound 0.1265 µM): 0.394
- relative viability ([8]; first compound 0.4 µM): 0.305
- relative viability ([8]; first compound 1.265 µM): 0.288
- relative viability ([8]; first compound 4 µM): 0.278
- relative viability ([9]; first compound 0.04 µM): 0.465
- relative viability ([9]; first compound 0.1265 µM): 0.461
- relative viability ([9]; first compound 0.4 µM): 0.541
- relative viability ([9]; first compound 1.265 µM): 0.542
- relative viability ([9]; first compound 4 µM): 0.57
- relative viability ([10]; first compound 0.04 µM): 0.234
- relative viability ([10]; first compound 0.1265 µM): 0.197
- relative viability ([10]; first compound 0.4 µM): 0.173
- relative viability ([10]; first compound 1.265 µM): 0.15
- relative viability ([10]; first compound 4 µM): 0.135
- relative viability ([11]; first compound 0.04 µM): 0.861
- relative viability ([11]; first compound 0.1265 µM): 0.843
- relative viability ([11]; first compound 0.4 µM): 0.637
